One series addresses human LSD1(172-833) (Homo sapiens (Human), UniProt O60341). As to the kind of experiment: Measurement of LSD1 inhibitory activity (time-resolved fluorescence, biotin-histone H3 mono methylated K4 peptide). Format: biochemical. As to the method:
When the turbidity reached 500 Klett units, the culture temperature was changed to 16° C., IPTG (Isopropyl β-D-1-thiogalactopyranoside) having a final concentration of 0.5 mM was added to induce expression, and the cells were cultured further for 14 hr. The culture medium was centrifuged at 6,000 g for 15 min, and Escherichia coil pellets were recovered.
Using Branson ultrasonic disintegrator, the suspension was disrupted by ultrasonication for 3 min, and centrifuged at 33,000 g for 60 min, and the supernatant was recovered. […] It was concentrated to 10 mL with AmiconUltra (NWCO 30K) (Millipore Japan), and purified with HiLoad 26/60 Superdex 200 pg column (GE Healthcare) equilibrated with Buffer A to give hLSD1 purified product (8.4 mg). The protein concentration of hLSD1 was measured by BCA Protein Assay Kit (Thermo Fisher Scientific K.K.) using bovine serum albumin as the standard.
(5) Measurement of LSD1 Inhibitory Activity
After reaction at room temperature for 5 min, 1 mM 2-PCPA solution was added 5 μL to terminate the reaction. A detection solution ([…] potassium fluoride, 0.1% BSA) containing europium-labeled anti-histone H3 antibody (Wako Pure Chemical Industries, Ltd.) and Streptavidin-XL665 (Cisbio) was further added by 5 μL, and the mixture was left standing for 60 min.

The next series deals with MAO-B enzyme (Homo sapiens (Human), UniProt P27338). As to the kind of experiment: Measurement of MAO-B inhibitory activity (MAO-Glo Assay).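 Note: luminescence read-out, compound preincubated 10 min with enzyme then reacted 60 min at room temperature, inhibition relative to enzyme reaction without compound, blank lacking enzyme and compound.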 To be noted: read-out: MAO-B IC50 value.
Sequence of MAO-B enzyme (P27338 whole entry): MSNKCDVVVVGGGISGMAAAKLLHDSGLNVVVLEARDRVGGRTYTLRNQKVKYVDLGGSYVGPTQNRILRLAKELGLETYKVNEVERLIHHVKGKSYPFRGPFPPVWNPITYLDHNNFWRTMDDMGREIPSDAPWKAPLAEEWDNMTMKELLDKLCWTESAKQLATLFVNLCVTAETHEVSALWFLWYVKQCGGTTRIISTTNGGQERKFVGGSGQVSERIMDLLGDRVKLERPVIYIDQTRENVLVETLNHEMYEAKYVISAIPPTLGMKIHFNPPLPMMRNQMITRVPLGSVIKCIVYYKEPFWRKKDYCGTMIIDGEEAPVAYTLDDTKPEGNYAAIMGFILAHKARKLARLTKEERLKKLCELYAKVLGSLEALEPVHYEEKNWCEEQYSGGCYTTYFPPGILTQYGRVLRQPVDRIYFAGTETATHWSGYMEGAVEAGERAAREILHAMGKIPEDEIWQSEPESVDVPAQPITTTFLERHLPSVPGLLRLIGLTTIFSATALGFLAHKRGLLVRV
The next series deals with MAO-A enzyme (Homo sapiens (Human), UniProt P21397). The series is described as follows: Measurement of MAO-A inhibitory activity (MAO-Glo Assay). It is filed as biochemical.
Sequence of MAO-A enzyme (P21397 whole entry): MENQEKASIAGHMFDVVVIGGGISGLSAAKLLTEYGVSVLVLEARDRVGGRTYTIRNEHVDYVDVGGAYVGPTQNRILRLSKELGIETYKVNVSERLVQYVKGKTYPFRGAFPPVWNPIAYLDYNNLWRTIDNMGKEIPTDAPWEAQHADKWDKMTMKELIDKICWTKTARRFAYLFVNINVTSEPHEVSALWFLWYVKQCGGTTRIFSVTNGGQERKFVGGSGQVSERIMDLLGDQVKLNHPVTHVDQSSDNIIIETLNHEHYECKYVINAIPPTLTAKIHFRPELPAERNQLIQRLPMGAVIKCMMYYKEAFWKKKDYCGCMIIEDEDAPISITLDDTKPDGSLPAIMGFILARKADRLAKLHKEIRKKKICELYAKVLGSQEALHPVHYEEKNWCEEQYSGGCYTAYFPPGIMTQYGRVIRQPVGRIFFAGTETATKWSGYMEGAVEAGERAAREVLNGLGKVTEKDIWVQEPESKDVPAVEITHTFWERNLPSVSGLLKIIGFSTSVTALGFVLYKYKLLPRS
Series [1] is described as follows: Evaluation of hippocampal distribution in mouse. Format: in vivo. To be noted: male ICR mice, 10 mg/kg oral; for concentration at 0.5 h / Kp at 0.5 h: 0.5 hr after administration; for Kp at 0.5 h / Kp at 1 h: hippocampus/plasma, read-out: hippocampus/plasma concentration ratio (mean); for concentration at 1 h / Kp at 1 h: 1 hr after administration. The procedure:
Evaluation of Hippocampal Distribution in Mouse
(§1) Male ICR mice (hereinafter mice) were acclimated for at least one week in a rearing facility. The mice were raised in a rearing room with controlled temperature and humidity under a 12:12 hour light-dark cycle, and allowed free ingestion of feed and water.
The compounds were suspended in 0.5% methylcellulose/0.02% citric acid/distilled water and orally administered. All compounds were administered to the mice at a dose of 10 mg/kg (body weight).
Blood samples were collected at 0.5 hr, or 1 hr, or 1.5 hr from compound administration, and the hippocampus was isolated simultaneously. The plasma concentration and hippocampus concentration of each test compound were measured by the LC/MS/MS method, the ratio (hippocampus/plasma concentration ratio) was calculated, and distribution into hippocampus was evaluated.

In series [2] the test system is white blood cell number, red blood cell number, platelet number. The series is described as follows: Evaluation of blood cell number in mouse. Format: in vivo. To be noted: oral, Day 2 after administration. The procedure:
Evaluation of Blood Cell Number in Mouse
as §1
The compounds were suspended in 0.5% methylcellulose/0.02% citric acid/distilled water and orally administered. All compounds were administered to the mice at a dose of 1 mg/kg, 10 mg/kg, 50 mg/kg or 100 mg/kg (body weight). On Day 2 after the administration of the compound, the whole blood was collected.
Using Sysmex XT-1800i (Sysmex Corporation), the white blood cell number, red blood cell number, and platelet number in the collected whole blood per unit volume were measured. The influence of each compound on each blood cell number was determined by comparing the number with the mean of each blood cell number of the mouse without administration of the compound (control group), and the numerical value of each blood cell number of a mouse with the administration of the compound is shown in percentage. percentage (%) of blood cell number of compound administration group as compared to control group=(mean blood cell number of compound administration group mean blood cell number of compound non-administration group)×100

[3] abbreviates: hippocampus, read-out: hippocampus concentration (mean).
Setting [4] is: plasma, read-out: plasma concentration (mean).

Molecules are shown by their SMILES. Counter-ions that a name gives are not always drawn. Like-named read-outs stand apart in the source and are kept apart here.

Description for MAO-B enzyme: The MAO-B inhibitory activity evaluation described below followed the protocol of MAO-Glo (registered trademark) Assay of Promega KK.
A test compound dissolved in 4% DMSO was added by 12.5 μL to 25 μL reaction solution (100 mM HEPES (pH 7.5), 5% glycerol, 10% DMSO) containing 400 ng of MAO-B enzyme (Sigma-Aldrich Co. LLC.), and the mixture was reacted at room temperature for 10 min. […] After reaction at room temperature for 60 min, Luciferine detection reagent (Promega KK) (50 μL) was added to terminate the reaction. After reaction at room temperature for 20 min with stirring, the luminescence was measured by Envision (PerkinElmer). The MAO-B inhibitory rate (%) of the test compound was calculated by the following formula. inhibitory rate(%)=(1−(test compound count−blank)÷(control−blank))×100
The count of the MAO-B enzyme reaction mixture under compound non-addition conditions is indicated as control, and the count under compound non-addition and MAO-B enzyme non-addition conditions is indicated as blank.

Take `N[C@@H]1C[C@H]1c1ccc(C(=O)Nc2ccccc2)cc1` (relative stereo) [Example 1, 4-(trans-2-aminocyclopropyl)-N-phenylbenzamide hydrochloride]: the IC50 – broadly, the midpoint of a concentration-inhibition curve – against human LSD1(172-833) is less than 100 nM; on MAO-B enzyme it was 3200 nM; on MAO-A enzyme, 100 nM.
`N[C@@H]1C[C@H]1c1ccc(C(=O)NCc2ccccc2)cc1` (relative stereo) [Example 2, 4-(trans-2-aminocyclopropyl)-N-benzylbenzamide hydrochloride]: the IC50 was less than 100 nM against human LSD1(172-833), more than 10000 nM at MAO-B enzyme and 100 nM at MAO-A enzyme.
As to `CN(C(=O)c1ccc([C@@H]2C[C@H]2N)cc1)c1ccccc1` (relative stereo) [Example 3, 4-(trans-2-aminocyclopropyl)-N-methyl-N-phenylbenzamide hydrochloride], the IC50 was less than 100 nM at human LSD1(172-833), more than 10000 nM on MAO-B enzyme and 250 nM at MAO-A enzyme.
In the case of `N[C@@H]1C[C@H]1c1ccc(C(=O)Nc2cccc(C(F)(F)F)c2)cc1` (relative stereo) [Example 4, 4-(trans-2-aminocyclopropyl)-N-(3-(trifluoromethyl)phenyl)benzamide hydrochloride], the IC50 on human LSD1(172-833) is less than 100 nM; at MAO-B enzyme it was 540 nM; against MAO-A enzyme, 190 nM.
`N[C@@H]1C[C@H]1c1ccc(C(=O)NC2CCCCC2)cc1` (relative stereo) [Example 6, 4-(trans-2-aminocyclopropyl)-N-cyclohexylbenzamide hydrochloride]: the results for the IC50 against human LSD1(172-833), on MAO-B enzyme and against MAO-A enzyme were less than 100 nM, 4200 nM and 320 nM, respectively.
Regarding `Cc1cc(NC(=O)c2cccc([C@@H]3C[C@H]3NC3CCC(F)(F)CC3)c2)n(C)n1` (relative stereo) [Example 215, 3-(trans-2-((4,4-difluorocyclohexyl)amino)cyclopropyl)-N-(1,3-dimethyl-1H-pyrazol-5-yl)benzamide dihydrochloride], in series [1] (setting [3]), the concentration at 0.5 h stood at 481 ng/g. Further, the Kp at 0.5 h in series [1] stood at 0.31. For the same compound, the concentration at 0.5 h in series [1] (setting [4]) was 1570 ng/mL. In series [2] (10 mg/kg), the “platelet number, percentage of compound administration group compared to control group, mean” value (“platelet number, percentage” below) came out at 100.7%; the “red blood cell number, percentage of compound administration group compared to control group, mean” value (“red blood cell number, percentage” for short) came out at 98.4%; the “white blood cell number, percentage of compound administration group compared to control group, mean” value (“white blood cell number, percentage” below) is reported as 113.3%. Further, in series [2] (100 mg/kg), the “platelet number, percentage” value amounted to 91.2%; the “red blood cell number, percentage” value was determined as 99.8%; the “white blood cell number, percentage” value was found to be 124.7%.
In the case of `Cc1nnc(NC(=O)c2cc([C@@H]3C[C@H]3NC3CCC(F)(F)CC3)ccc2F)s1` (relative stereo) [Example 223, 5-(trans-2-((4,4-difluorocyclohexyl)amino)cyclopropyl)-2-fluoro-N-(5-methyl-1,3,4-thiadiazol-2-yl)benzamide dihydrochloride], in series [1] (setting [3]), the concentration at 0.5 h stood at 2390 ng/g. Besides, the Kp at 0.5 h in series [1] was 1.69. The concentration at 0.5 h in series [1] (setting [4]) was 1400 ng/mL. In series [2] (10 mg/kg), the “platelet number, percentage” value amounted to 94.8%; the “red blood cell number, percentage” value amounted to 101.2%; the “white blood cell number, percentage” value is 114.5%. In series [2] (100 mg/kg), the “platelet number, percentage” value was 98.9%; the “red blood cell number, percentage” value was 100.4%; the “white blood cell number, percentage” value turned out to be 121.7%.
Take `Cc1cc(NC(=O)c2cccc([C@@H]3C[C@H]3NC3CCC3)c2)no1` (relative stereo) [Example 232, 3-(trans-2-(cyclobutylamino)cyclopropyl)-N-(5-methyl-1,2-oxazol-3-yl)benzamide hydrochloride]: the figures for the concentration at 1 h in series [1] (setting [3]) and in series [1] (setting [4]) were 572 ng/g and 154 ng/mL, respectively. Also, the Kp at 1 h in series [1] was 3.66. In addition, the “platelet number, percentage” value is listed as 102.4% in series [2] (10 mg/kg) and 93.5% in series [2] (100 mg/kg). Further, the “red blood cell number, percentage” value in series [2] (10 mg/kg) is recorded as 100.4%; in series [2] (100 mg/kg), 99.3%. The “white blood cell number, percentage” value in series [2] (10 mg/kg) worked out at 97.3%; in series [2] (100 mg/kg), 92.4%.
With `O=C(NC1CC(F)(F)C1)c1cccc([C@@H]2C[C@H]2NC2CCC(F)(F)CC2)c1` (relative stereo) [Example 234, N-(3,3-difluorocyclobutyl)-3-(trans-2-((4,4-difluorocyclohexyl)amino)cyclopropyl)benzamide hydrochloride], in series [1] (setting [3]), the concentration at 1 h was 276 ng/g. In addition, the Kp at 1 h in series [1] is 1.58. For the same compound, in series [1] (setting [4]), the concentration at 1 h was 175 ng/mL. Besides, in series [2] (10 mg/kg), the “platelet number, percentage” value is reported as 98.8%; the “red blood cell number, percentage” value amounted to 97.7%; the “white blood cell number, percentage” value was found to be 76.7%. Further, in series [2] (100 mg/kg), the “platelet number, percentage” value is on record as 88.9%; the “red blood cell number, percentage” value turned out to be 101.2%; the “white blood cell number, percentage” value is on record as 94.8%.
Turning to `Cc1cc(NC(=O)c2cccc([C@@H]3C[C@H]3NC3CCOCC3)c2)on1` (relative stereo) [Example 235, N-(3-methyl-1,2-oxazol-5-yl)-3-(trans-2-(tetrahydro-2H-pyran-4-ylamino)cyclopropyl)benzamide hydrochloride], the concentration at 0.5 h in series [1] (setting [3]) was found to be 216 ng/g; in series [1] (setting [4]) it was 204 ng/mL. In series [1], the Kp at 0.5 h is 1.04. Also, the “platelet number, percentage” value in series [2] (10 mg/kg) was 99.1%; in series [2] (100 mg/kg) it was 96.6%. Further, the “red blood cell number, percentage” value in series [2] (10 mg/kg) came to 101.1%; in series [2] (100 mg/kg) it was 97.8%. Moreover, the “white blood cell number, percentage” value in series [2] (10 mg/kg) was found to be 75.7%; in series [2] (100 mg/kg), 93.0%.
Turning to `O=C(NC1CC(F)(F)C1)c1cc([C@@H]2C[C@H]2NCC2CC2)ccc1F` (relative stereo) [Example 241, 5-(trans-2-((cyclopropylmethyl)amino)cyclopropyl)-N-(3,3-difluorocyclobutyl)-2-fluorobenzamide hydrochloride], the concentration at 0.5 h in series [1] (setting [3]) was found to be 878 ng/g; in series [1] (setting [4]), 167 ng/mL. In series [1], the Kp at 0.5 h was 5.31. Further, the “platelet number, percentage” value in series [2] (10 mg/kg) came out at 102.6%; in series [2] (100 mg/kg), 89.2%. For the same compound, the results for the “red blood cell number, percentage” value in series [2] (10 mg/kg) and in series [2] (100 mg/kg) were 96.9% and 99.0%, respectively. Besides, the “white blood cell number, percentage” value in series [2] (10 mg/kg) is given as 94.6%; in series [2] (100 mg/kg), 101.9%.

The values above are taken from patent US9751885B2, “Cyclopropanamine compound and use thereof” (Takeda Pharmaceutical Company Limited, priority 2012, dated 2017).
